Patent US20220195360A1, “Additive Manufacturing of Functional Myocardial Tissue” (The United States of America, as represented by the …, priority 2017, published 2022)
Like-named read-outs stand apart in the source and are kept apart here.

What was measured:
Type in all cases: cell-based
[1] = test system: hiPSC-cardiomyocytes; details: human
Method: The seeding of hiPSC-cardiomyocytes can follow the same procedure that is described above for neonatal rat cardiomyocytes, except that a Roswell Park Memorial Institute (RPMI)-1640 medium containing 1×B27 supplements (by GIBCO®) can be used for culturing. Other choices in the prior art that are known for culturing cardiomyocytes might also be possible.
(§1) Live/Dead staining was performed according to the manufacturer's instructions (THERMO FISHER®). Beating of the cardiomyocytes was observed using an optical microscope and analyzed using custom-coded MATLAB programs, as known in the prior art. Monitoring of the beating behavior was performed every day until contractions were no longer observed. […] The levels of secreted vWF were measured by an ELISA kit (ab189571) by ABCAM®.
(§2) The same procedures for fabricating the vascular beds using bioprinted microfibrous scaffolds as described above were used, but hiPSC-cardiomyocytes were subsequently seeded instead of the neonatal rat cells. […] The human-derived myocardial organoids seemed to have slightly lower endurance at all of the time points analyzed in comparison to those of rat origin (FIG. 8C versus FIG. 7C). […]

[2] = test system: endothelial cells (HUVECs); test: vWF expression by the endothelial component of the endothelialized-human-myocardium-on-a-chip; details: different doses, human model (FIG. 8D) compared with rat model (FIG. 7D)
Method: (§3) Both bioink 26 and CaCl2) solutions can be maintained at 37° C. before use. HUVECs can be re-suspended in the bioink at a concentration of 1×10^7 cells/mL. Following the bioprinting and the subsequent crosslinking processes, the constructs can be washed with PBS to remove excess CaCl2). After washing, the constructs can be cultured in endothelial cell growth medium (EGM) at 37° C. and 5% CO2 volume throughout a period of up to 33 days. The EGM/CO2 medium can be changed twice in the first day and then every 2 days thereafter.
as §1, §2

[3] = test system: endothelial cells (HUVECs); details: human, 6 day
Method: as §3, §1
(§4) For example, the endothelialized-myocardium-on-a-chip model can be used to assess treatment by a common anti-cancer drug, doxorubicin. Unlike other pre-existing models, where only individual cell types were typically included, doxorubicin elicited dose-dependent responses towards both cardiomyocytes and endothelial cells when assessed using the systems and methods of several embodiments.

[4] = test system: neonatal rat cardiomyocytes; details: 6 day
Method: For testing of the systems and methods according to several embodiments, neonatal rat cardiomyocytes were seeded following the formation of a layer of confluent endothelium at the peripheries the microfibers of the scaffolds, which generally occurred in 15 days. Freshly isolated cardiomyocytes were suspended in DMEM at a final concentration of 1×10^6 cells m/L. The scaffolds were individually placed on top of a thin layer of hydrophobic polydimethylsiloxane (PDMS). Approximately 40 μL of cell suspension was dropped to cover each scaffold, and incubated at 37° C. for 2 hours, to allow the cardiomyocytes to adhere onto the microfibers. […]
as §1, with “art.” for “art. Monitoring of the beating behavior was performed every day until contractions were no longer observed.”, “ABCAM®. […]” for “ABCAM®.”
as §4

relative beating of the hiPSC-cardiomyocytes ([1]; 10 μM): 66.0% | relative beating of the hiPSC-cardiomyocytes ([1]; 100 μM): 2.78% | levels of von Willebrand factor (vWF) secreted by the endothelial cells ([3]; 10 μM): 76.0% | levels of von Willebrand factor (vWF) secreted by the endothelial cells ([3]; 100 μM): 35.3% | relative beating rate of the cardiomyocytes ([4]; 10 μM): 70.5% | relative beating rate of the cardiomyocytes ([4]; 100 μM): 1.62%
SMILES: COc1cccc2c1C(=O)c1c(O)c3c(c(O)c1C2=O)C[C@@](O)(C(=O)CO)C[C@@H]3O[C@H]1C[C@H](N)[C@H](O)[C@H](C)O1 [doxorubicin]
toxicity on the endothelial component of the constructs (vWF expression) [2]: corresponded well with that observed for the rat myocardial organoids
